Assay results: US12589156B2, “Benzimidazole and benzimidazolone based protac compounds for the targeted degradation of leucine rich repeat kinase 2 (LRRK2)” (Arvinas Operations, Inc., priority 2023, dated 2026)

Molecular target: T1, WT LRRK2 (Homo sapiens, UniProt Q5S007)
T1 construct: endogenous in cells; host or cells: HEK293 (endogenous LRRK2 gene knock-in tagged with HiBit; stably expressing CMV-driven firefly luciferase)
Test: LRRK2 HiBit degradation assay (Nano-Glo Dual Luciferase) in HEK293 cells with HiBit-tagged endogenous LRRK2
Type: cell-based
Conditions: for Dmax: maximal degradation
Text: Biological Assays Exemplary Assay for Testing LRRK2 Degradation Driven by Exemplary Hetero-Bifunctional Compounds Designed to Target LRRK2
The assay measures the degradation of LRRK2 in cells where the C-terminus (3′) of the endogenous gene has been tagged with a HiBit sequence in HEK293 cells. The cells also express firefly lucisferase, expressed from a Cytomegalovirus promoter and introduced into the HiBit tagged cells and stably expressed. The Nano-Glo® Dual Luciferase Reporter Assay System (Promega™, Madison, WI) was utilized.
Day 1—Preparation of Compound and Assay Plates. Two sets of plates were prepared: a triplicate set for the HiBit assay in white 384-well plates and a triplicate set of plate in black 384-well plates for the Alamar Blue cell viability assay. Briefly, the growth media (DMEM+Glutamax-10% fetal bovine serum-1% Penicillin-Streptomicin) from two T128 flasks was aspirated from the flasks. Cells were washed with Dulbecco's Phosphate Buffered Saline (dPBS) and aspirated. Trypsin (3 mL per flask) was added and the flasks were incubated for 2-3 minutes.
Ten mL of OptiMEM—10% fetal bovine-1% penicillin-streptomycin (hereinafter, “OptiMEM media”) was added to the flask and the cells and transferred to a 50 ml conical tube. A cell count (25 ul of cell into Effendorf vial+25 ul of Trypan Blue Stain) was performed and the cell density adjusted to 15,000 cell/45 μl/well (3.33×10^5/mL) in OptiMEM media.
Forty-five microliters of the cell suspension (15,000 cells) was aliquoted to each well of the white 384-well plate. The plates incubated at room temperature for 10 minutes before being placed in the 37° C.+5% CO2 incubator overnight
Day 2—Compound Treatment. Exemplary compounds were prepared at a 1 mM starting concentration and 1:3 serial dilution for 11 points CRC prepared and stored in the freezer. The Master Compound Plate was thawed overnight at room temperature. DMSO (20 μL) was added into column 24 of the Master Compound Plate for negative control and 20 μL of 300 μM of Compound 4 in column 23 as positive control.
Intermediate Compound Plate with 4% DMSO in OptiMEM Media. DMSO was added to warm OptiMEM media to achieve a 4% DMSO solution (approximately 50 mL/plate). One-hundred microliters of the OptiMEM-4% DMSO was aliquoted to each well of 384-Well Deep Well Microplates.
The Master Compound Plate and the Intermediate Compound Plate were spun down.
One microliter of compound from the Master Compound Plate was transferred into the Intermediate plate (a 1:100 dilution). The diluted mixture was mixed and 5 μL transferred into the assay plate (a 1:10 dilution) for the final starting concentration of 1 μM. The Treated Assay plates were incubated for 24 hours at 37° C.+5% CO2. The Master Compound Plate was sealed and store at room temperature for a second run that was performed within a week.
One set of white assay plates was warmed to room temperature (45 minute).
The One Glo luciferase mixture was prepared. The media from white 384-well assay plates was aspirated. Twenty-five μL of the One Glo luciferase mixture was added to each well of the assay plates. The plates were incubated on the bench (room temperature) for 45 minutes, including 10 minutes of shaking at 700 rpm. The luminescence of each plate was read on a plate reader.
1:100 DLR substrate and 1:100 LgBiT Protein dilution were added to the Promega Stop and Glo buffer and mixed just before addition to assay plates. Twenty-five microliters of Stop and Glo mixture was added to each well. Assay plates incubated for at least 45 minutes, including 10 minutes of shaking at 700 rpm. The luminescence of each plate was read on a plate reader.
Analysis of LRRK2 HiBit Screening assays. As mentioned above, plates were run in triplicate and the assay repeated twice (total of 6 replicate for exemplary compounds). For each treatment, measurements were taken for firefly luciferase for cell number, cell viability (Alamar Blue), and Nanoluc for the LRRK2-HiBit quantification. […]

[1] = Table 2, HiBit-tagged LRRK2 in HEK293 cells, 24 hours treatment, starting concentration 1 μM
[2] = HEK293, Table 2, HiBit-tagged LRRK2 in HEK293 cells, 24 hours treatment
[3] = HEK293, Table 3, comparison with direct comparators
[4] = Table 3, comparison with direct comparators, HiBit-tagged LRRK2 in HEK293 cells, 24 hours treatment

T1 sequence (Q5S007 whole entry): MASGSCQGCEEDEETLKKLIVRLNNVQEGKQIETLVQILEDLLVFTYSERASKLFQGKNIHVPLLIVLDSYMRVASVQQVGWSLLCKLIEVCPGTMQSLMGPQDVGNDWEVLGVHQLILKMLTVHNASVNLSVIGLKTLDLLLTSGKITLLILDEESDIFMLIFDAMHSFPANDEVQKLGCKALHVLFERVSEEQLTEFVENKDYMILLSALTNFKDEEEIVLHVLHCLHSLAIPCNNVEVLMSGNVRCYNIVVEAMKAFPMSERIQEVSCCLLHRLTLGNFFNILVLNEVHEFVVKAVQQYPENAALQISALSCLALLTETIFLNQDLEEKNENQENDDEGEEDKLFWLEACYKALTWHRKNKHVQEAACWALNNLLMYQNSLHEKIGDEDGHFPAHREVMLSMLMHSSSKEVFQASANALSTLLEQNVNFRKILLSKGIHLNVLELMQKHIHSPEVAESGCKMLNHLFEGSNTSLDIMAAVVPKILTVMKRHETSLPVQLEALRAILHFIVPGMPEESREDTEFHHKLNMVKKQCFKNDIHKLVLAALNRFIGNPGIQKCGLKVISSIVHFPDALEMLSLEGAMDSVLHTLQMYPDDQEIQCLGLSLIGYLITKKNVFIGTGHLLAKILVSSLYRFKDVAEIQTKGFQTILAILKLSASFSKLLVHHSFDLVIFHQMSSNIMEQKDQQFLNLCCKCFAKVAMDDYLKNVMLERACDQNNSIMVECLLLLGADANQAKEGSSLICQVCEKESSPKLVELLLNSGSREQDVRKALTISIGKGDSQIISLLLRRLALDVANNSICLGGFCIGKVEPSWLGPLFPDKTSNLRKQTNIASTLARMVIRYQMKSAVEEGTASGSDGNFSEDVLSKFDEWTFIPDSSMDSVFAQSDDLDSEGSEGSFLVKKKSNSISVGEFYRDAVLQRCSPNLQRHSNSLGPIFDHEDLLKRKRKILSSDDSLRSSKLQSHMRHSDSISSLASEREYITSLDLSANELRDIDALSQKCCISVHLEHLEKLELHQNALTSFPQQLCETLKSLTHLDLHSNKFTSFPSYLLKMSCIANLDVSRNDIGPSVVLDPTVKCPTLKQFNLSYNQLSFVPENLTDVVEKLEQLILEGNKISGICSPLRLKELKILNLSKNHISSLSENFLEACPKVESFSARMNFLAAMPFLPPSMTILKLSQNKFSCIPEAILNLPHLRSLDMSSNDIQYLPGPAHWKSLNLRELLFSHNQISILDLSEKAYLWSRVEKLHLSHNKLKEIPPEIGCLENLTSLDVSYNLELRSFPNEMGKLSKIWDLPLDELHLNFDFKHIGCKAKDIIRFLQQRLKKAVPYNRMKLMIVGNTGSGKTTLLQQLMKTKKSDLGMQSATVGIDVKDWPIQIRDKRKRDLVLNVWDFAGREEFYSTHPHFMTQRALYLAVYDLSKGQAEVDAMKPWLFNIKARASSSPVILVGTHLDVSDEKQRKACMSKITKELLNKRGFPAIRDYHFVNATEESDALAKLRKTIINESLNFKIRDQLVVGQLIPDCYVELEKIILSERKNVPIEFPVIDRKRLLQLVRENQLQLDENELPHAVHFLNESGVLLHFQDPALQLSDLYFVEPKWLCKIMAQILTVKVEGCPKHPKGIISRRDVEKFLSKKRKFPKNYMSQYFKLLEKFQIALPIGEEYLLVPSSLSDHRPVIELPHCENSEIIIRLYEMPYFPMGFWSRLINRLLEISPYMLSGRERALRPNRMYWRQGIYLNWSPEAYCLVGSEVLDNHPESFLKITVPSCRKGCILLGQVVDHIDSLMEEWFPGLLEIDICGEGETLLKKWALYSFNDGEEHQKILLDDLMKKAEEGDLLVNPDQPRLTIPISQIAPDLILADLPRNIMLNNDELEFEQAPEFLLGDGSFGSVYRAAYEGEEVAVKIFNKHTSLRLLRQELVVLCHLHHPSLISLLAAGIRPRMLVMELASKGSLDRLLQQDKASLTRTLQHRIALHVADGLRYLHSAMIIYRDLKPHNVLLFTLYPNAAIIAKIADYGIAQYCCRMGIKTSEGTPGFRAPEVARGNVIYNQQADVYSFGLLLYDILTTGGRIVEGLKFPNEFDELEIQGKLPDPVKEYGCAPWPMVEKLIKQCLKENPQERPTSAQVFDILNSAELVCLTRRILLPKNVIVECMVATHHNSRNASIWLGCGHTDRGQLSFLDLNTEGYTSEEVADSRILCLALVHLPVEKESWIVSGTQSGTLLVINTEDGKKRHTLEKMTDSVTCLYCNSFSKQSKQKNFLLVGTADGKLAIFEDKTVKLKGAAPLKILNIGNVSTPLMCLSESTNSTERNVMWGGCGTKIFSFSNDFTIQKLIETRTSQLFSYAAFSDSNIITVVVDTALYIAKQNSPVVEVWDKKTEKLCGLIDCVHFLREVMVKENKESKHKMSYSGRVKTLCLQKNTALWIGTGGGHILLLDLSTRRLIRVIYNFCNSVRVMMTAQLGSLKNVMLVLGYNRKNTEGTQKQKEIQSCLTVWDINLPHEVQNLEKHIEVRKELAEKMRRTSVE

Structure (SMILES)	DC50 [1] [nM]	Dmax (Table 2, HiBit-tagged LRRK2 in HEK293 cells, 24 hours treatment) [%]	Dmax [2] [%]	Dmax [3] [%]	DC50 [4] [nM]	increase in WT LRRK2 DC50 activity when compared to Comparator Example (versus comparator bearing a 3-(4-methoxy-1-oxoisoindolin-2-yl)piperidine-2,6-dione group) [fold]
Cn1c(=O)n(C2CCC(=O)NC2=O)c2ccc(N3CCC(O[C@H]4C[C@H](OC5CCN(c6cc(-c7n[nH]c8ccc(OC9(C)CC9)cc78)ncn6)CC5)C4)CC3)cc21 (single isomer, unassigned) [Compound 29, rel-3-(3-methyl-2-oxo-5-{4-[(1r,3r)-3-[(1-{6-[5-(1-methylcyclopropoxy)-1H-indazol-3-yl]pyrimidin-4-yl}piperidin-4-yl)oxy]cyclobutoxy]piperidin-1-yl}-2,3-dihydro-1H-1,3-benzodiazol-1-yl)piperidine-2,6-dione]	0.16	54	–	–	–	–
CC1(Oc2ccc3[nH]nc(-c4cc(N5CCC(CN6CCN(CC7CCN(c8cccc9c8ncn9C8CCC(=O)NC8=O)CC7)CC6)CC5)ncn4)c3c2)CC1 (stereo not drawn) [Compound 70, 3-{4-[4-({4-[(1-{6-[5-(1-methylcyclopropoxy)-1H-indazol-3-yl]pyrimidin-4-yl}piperidin-4-yl)methyl]piperazin-1-yl}methyl)piperidin-1-yl]-1H-1,3-benzodiazol-1-yl}piperidine-2,6-dione]	20	–	33	33	20	–
Cn1c(=O)n(C2CCC(=O)NC2=O)c2ccc(N3CCC(O[C@H]4C[C@H](CN5CCN(c6cc(-c7n[nH]c8cnc(OC9(C)CC9)cc78)ncn6)CC5)C4)CC3)cc21 (single isomer, unassigned) [Compound 35, rel-3-(3-methyl-2-oxo-5-{4-[(1r,3r)-3-[(4-{6-[5-(1-methylcyclopropoxy)-1H-pyrazolo[3,4-c]pyridin-3-yl]pyrimidin-4-yl}piperazin-1-yl)methyl]cyclobutoxy]piperidin-1-yl}-2,3-dihydro-1H-1,3-benzodiazol-1-yl)piperidine-2,6-dione]	0.052	–	50	–	–	–
CC(C)n1c(=O)n(C2CCC(=O)NC2=O)c2ccc(N3CCC(CN4CCN(CC5CCN(c6cc(-c7n[nH]c8ccc(OC9(C)CC9)cc78)ncn6)CC5)C(C)(C)C4)CC3)cc21 (stereo not drawn) [Compound 2, 3-{5-[4-({3,3-dimethyl-4-[(1-{6-[5-(1-methylcyclopropoxy)-1H-indazol-3-yl]pyrimidin-4-yl}piperidin-4-yl)methyl]piperazin-1-yl}methyl)piperidin-1-yl]-2-oxo-3-(propan-2-yl)-2,3-dihydro-1H-1,3-benzodiazol-1-yl}piperidine-2,6-dione]	0.18	–	55	–	–	–
CC(C)Oc1cc2c(-c3cc(N4CCN(C[C@H]5CC[C@H](OC6CCN(c7ccc8c(c7)n(C)c(=O)n8C7CCC(=O)NC7=O)CC6)CC5)CC4)ncn3)n[nH]c2cn1 (single isomer, unassigned) [Compound 20, rel-3-[3-methyl-2-oxo-5-(4-{[(1r,4r)-4-[(4-{6-[5-(propan-2-yloxy)-1H-pyrazolo[3,4-c]pyridin-3-yl]pyrimidin-4-yl}piperazin-1-yl)methyl]cyclohexyl]oxy}piperidin-1-yl)-2,3-dihydro-1H-1,3-benzodiazol-1-yl]piperidine-2,6-dione]	0.56	–	40	–	–	–
Cn1c(=O)n(C2CCC(=O)NC2=O)c2ccc(N3CCC(O[C@H]4CC[C@@H](CN5CCN(c6cc(-c7n[nH]c8cnc(OC9(C)CC9)cc78)ncn6)CC5)CC4)CC3)cc21 (stereo partly drawn) [Compound 68, 3-[3-methyl-2-oxo-5-(4-{[(1s,4s)-4-[(4-{6-[5-(1-methylcyclopropoxy)-1H-pyrazolo[3,4-c]pyridin-3-yl]pyrimidin-4-yl}piperazin-1-yl)methyl]cyclohexyl]oxy}piperidin-1-yl)-2,3-dihydro-1H-1,3-benzodiazol-1-yl]piperidine-2,6-dione]	1.2	–	35	–	–	–
CCOc1ccc2[nH]nc(-c3cc(N4CCN(C[C@H]5CC[C@H](OC6CCN(c7ccc8c(c7)n(C)c(=O)n8C7CCC(=O)NC7=O)CC6)CC5)CC4)ncn3)c2c1 (single isomer, unassigned) [Compound 61, rel-3-[3-methyl-2-oxo-5-(4-{[(1r,4r)-4-({4-[6-(5-ethoxy-1H-indazol-3-yl)pyrimidin-4-yl]piperazin-1-yl}methyl)cyclohexyl]oxy}piperidin-1-yl)-2,3-dihydro-1H-1,3-benzodiazol-1-yl]piperidine-2,6-dione]	0.51	–	48	–	–	–
Cn1c(=O)n(C2CCC(=O)NC2=O)c2cccc(N3CCC(O[C@H]4CC[C@H](CN5CCN(c6cc(-c7n[nH]c8cnc(OC9(C)CC9)cc78)ncn6)CC5)CC4)CC3)c21 (single isomer, unassigned) [Compound 46, rel-3-[3-methyl-2-oxo-4-(4-{[(1r,4r)-4-[(4-{6-[5-(1-methylcyclopropoxy)-1H-pyrazolo[3,4-c]pyridin-3-yl]pyrimidin-4-yl}piperazin-1-yl)methyl]cyclohexyl]oxy}piperidin-1-yl)-2,3-dihydro-1H-1,3-benzodiazol-1-yl]piperidine-2,6-dione]	2.1	–	90	–	–	–
CC1(Oc2ccc3[nH]nc(-c4cc(N5CCN(C[C@H]6CC[C@H](OC7CCN(c8cc(F)c9c(c8)ncn9C8CCC(=O)NC8=O)CC7)CC6)CC5)ncn4)c3c2)CC1 (stereo partly drawn) [Compound 43, rel-3-[7-fluoro-5-(4-{[(1r,4r)-4-[(4-{6-[5-(1-methylcyclopropoxy)-1H-indazol-3-yl]pyrimidin-4-yl}piperazin-1-yl)methyl]cyclohexyl]oxy}piperidin-1-yl)-1H-1,3-benzodiazol-1-yl]piperidine-2,6-dione]	6.2	–	49	49	6.2	–
CC1(Oc2ccc3[nH]nc(-c4cc(N5CCN(C[C@H]6CC[C@H](OC7CCN(c8cccc9c8ncn9C8CCC(=O)NC8=O)CC7)CC6)CC5)ncn4)c3c2)CC1 (stereo partly drawn) [Compound 3, 3-[4-(4-{[(1r,4r)-4-[(4-{6-[5-(1-methylcyclopropoxy)-1H-indazol-3-yl]pyrimidin-4-yl}piperazin-1-yl)methyl]cyclohexyl]oxy}piperidin-1-yl)-1H-1,3-benzodiazol-1-yl]piperidine-2,6-dione]	28	–	30	30	28	–
Cn1c(=O)n(C2CCC(=O)NC2=O)c2ccc(N3CCC(O[C@H]4CC[C@H](CN5CCN(c6cc(-c7n[nH]c8cnc(OC9(C)CC9)cc78)ncn6)CC5)CC4)CC3)cc21 (stereo partly drawn) [Compound 1, 3-[3-methyl-2-oxo-5-(4-{[(1r,4r)-4-[(4-{6-[5-(1-methylcyclopropoxy)-1H-pyrazolo[3,4-c]pyridin-3-yl]pyrimidin-4-yl}piperazin-1-yl)methyl]cyclohexyl]oxy}piperidin-1-yl)-2,3-dihydro-1H-1,3-benzodiazol-1-yl]piperidine-2,6-dione]	0.14	–	53	53	0.14	> 40
Cn1c(=O)n(C2CCC(=O)NC2=O)c2ccc(N3CCC(O[C@H]4CC[C@H](CN5CCN(c6cc(-c7n[nH]c8ccc([C@@]9(C#N)CC9%10CC%10)cc78)ncn6)CC5)CC4)CC3)cc21 (single isomer, unassigned) [Compound 65, (1R**)-1-{3-[6-(4-{[(1r*,4r*)-4-({1-[1-(2,6-dioxopiperidin-3-yl)-3-methyl-2-oxo-2,3-dihydro-1H-1,3-benzodiazol-5-yl]piperidin-4-yl}oxy)cyclohexyl]methyl}piperazin-1-yl)pyrimidin-4-yl]-1H-indazol-5-yl}spiro[2.2]pentane-1-carbonitrile]	0.13	–	64	–	–	–
